pIC50: −log10 of the molar value.

Assay [1] has as its system Ras farnesylation (viral Ha-ras p21) in the v-ras cell line. Put plainly: In vivo ras farnesylation assay in the v-ras cell line. The conditions noted are these: v-ras cells; 4 hours at 37° C. then additional 20 hours with [35S]methionine; read-out: IC50, inhibition of Ras farnesylation in the v-ras cell line. It counts as cell-based. How it is done:
The cell line used in this assay was the v-ras line, which expressed viral Ha-ras p21. The assay was performed essentially as described in DeClue, J. E. et. al., Cancer Research 51:712-717, (1991). Cells in 10 cm dishes at 50-75% confluency were treated with the test s compound (final concentration of solvent, methanol or dimethyl sulfoxide, was 0.1%). After 4 hours at 37° C., the cells were labelled in 3 ml methionine-free DMEM supplemented with 10% regular DMEM, 2% fetal bovine serum and 400 μCi[^35 S]methionine (1000 Ci/mmol). After an additional 20 hours, the cells were lysed in 1 ml lysis buffer (1% NP40/20 mM HEPES, pH 7.5/5 mM MgCl2 /1 mM DTT/10 μg/ml aprotinen/2 μg/ml leupeptin/2 μg/ml antipain/0.5 mM PMSF) and the lysates cleared by centrifugation at 100,000 × g for 45 min. Aliqouts of lysates containing equal numbers of acid-precipitable counts were bought to 1 ml with IP buffer (lysis buffer lacking DTT) and immunoprecipitated with the ras-specific monoclonal antibody Y13-259 (Furth, M. E. et. al., J. Virol. 43:294-304, (1982)). Following a 2 hour antibody incubation at 4° C., […] of a 25% suspension of protein A-Sepharose coated with rabbit anti rat IgG was added for 45 min. […]

For assay [2], the system named is Ras farnesylation. The conditions noted are these: Hancock et al., Casey et al., Schafer et al.; cited from earlier work.
The target of assay [3] is T1, Bovine FPTase (Bos taurus, UniProt P29702+P49355).
T1 construct: Partially purified bovine FPTase; from tissue
Briefly: In vitro inhibition of ras farnesyl transferase, partially purified bovine FPTase, Ras-CVLS and [3H]-FPP. It counts as biochemical. The conditions noted are these: 650 nM Ras-CVLS, pH 7.4, 31° C., 60 min, read-out: IC50, inhibition of RAS farnesylation (concentration giving 50% inhibition of FTase). How it is done:
Assays of farnesyl-protein transferase. Partially purified bovine FPTase and Ras peptides (Ras-CVLS, Ras-CVIM and RAS-CAIL) were prepared as described by Schaber et al., J. Biol. Chem. 265:14701-14704 (1990), Pompliano, et al., Biochemistry 31:3800 (1992) and Gibbs et at., PNAS U.S.A. 86:6630-6634 (1989), respectively. Bovine FPTase was assayed in a volume of 100 μl containing 100 mM N-(2-hydroxy ethyl) piperazine-N'-(2-ethane sulfonic acid) (HEPES), pH 7.4, 5 mM MgCl2, 5 mM dithiothreitol (DTT), […] [^3 H]-farnesyl diphosphate ([^3 H]-FPP; […], New England Nuclear), 650 nM Ras-CVLS and 10 μg/ml FPTase at 31° C. for 60 min. Reactions were initiated with FPTase and stopped with 1 ml of 1.0M HCL in ethanol. Precipitates were collected onto filter-mats using a TomTec Mach II cell harvestor, washed with 100% ethanol, dried and counted in an LKB β-plate counter. The assay was linear with respect to both substrates, FPTase levels and time; less than 10% of the [ ^3 H]-FPP was utilized during the reaction period. Purified compounds were dissolved in 100% dimethyl sulfoxide (DMSO) and were diluted 20-fold into the assay. Percentage inhibition is measured by the amount of incorporation of farnesyl in the presence of the test compound when compared to the amount of incorporation in the absence of the test compound.

For assay [4], the target named is T2, Human FPTase (Homo sapiens, UniProt P49354+P49356).
T2 construct: made in house
Briefly: In vitro inhibition of ras farnesyl transferase, recombinant human FPTase, Ras-CVIM and [3H]-FPP. The conditions noted are these: 100 nM Ras-CVIM, 30 min, read-out: IC50, inhibition of RAS farnesylation (concentration giving 50% inhibition of FTase). It counts as biochemical.

Turning to `CC[C@H](C)[C@@H](C(=O)N[C@H]1CCOC1=O)N(C)C[C@@H](NC[C@@H](N)CS)[C@@H](C)CC` [N-[2(S)-(2(R)-Amino-3-mercaptopropylamino)-3(S)-methylpentyl]-N-methyl-isoleucyl-homoserine lactone], in assay [1], the pIC50 is 4.30.

Turning to `CC[C@H](C)C(=O)O[C@H]1CCC=C2C=C[C@H](C)[C@H](CC[C@@H]3C[C@@H](O)CC(=O)O3)[C@H]21` [compactin], the “Inhibition of Ras farnesylation in vivo” value in assay [2] was “Inhibition of Ras farnesylation in vivo has been demonstrated”.

For `CC[C@H](C)[C@@H](C(=O)N[C@@H](CCO)C(=O)O)N(C)C[C@@H](NC[C@@H](N)CS)[C@@H](C)CC` [N-[2(S)-(2(R)-Amino-3-mercaptopropylamino)-3(S)-methylpentyl]-N-methyl-isoleucyl-homoserine], the pIC50 in assay [3] was 7.14.

For the compound `CC[C@H](C)C(=O)O[C@H]1C[C@@H](C)C=C2C=C[C@H](C)[C@H](CC[C@@H]3C[C@@H](O)CC(=O)O3)[C@H]21` [lovastatin], in assay [2], the “Inhibition of Ras farnesylation in vivo” value was “Inhibition of Ras farnesylation in vivo has been demonstrated”.

`CC[C@H](C)[C@@H](C(=O)N[C@@H](CCSC)C(=O)OC)N(C)C[C@@H](NC[C@@H](N)CS)[C@@H](C)CC` [N-[2(S)-(2(R)-amino-3-mercaptopropylamino)-3(S)-methyl-pentyl]-N-methyl-isoleucyl-methionine methyl ester]: the pIC50 in assay [1] is 5.30.

In the case of `CC[C@H](C)[C@@H](C(=O)N[C@@H](CCSC)C(=O)O)N(C)C[C@@H](NC[C@@H](N)CS)[C@@H](C)CC` [N-[2(S)-(2(R)-amino-3-mercaptopropylamino)-3(S)-methyl-pentyl]-N-methyl-isoleucyl-methionine], the pIC50 in assay [4] is 7.70.

Values taken from US5536750A, “Inhibitors of farnesyl-protein transferase” (Merck & Co., Inc., priority 1994, dated 1996).
